From US20250215039A1, “NUCLEOSIDES FOR TREATING CANCER” (PRIMEFOUR THERAPEUTICS, INC., priority 2022, published 2025)
Like-named read-outs stand apart in the source and are kept apart here.

System: cancer cell lines
Assay: Cancer cell proliferation activity (CellTiterGlo, 72 h)
Assay type: cell-based
Conditions: 72 h, 72 h, read-out: IC50
Description: Dose response relationships on cell proliferation was assessed for representative Compounds of the Disclosure on cancer cell lines. Briefly, compound treatment of cells started one day after seeding with a final DMSO concentration of 0.1%, and was performed by nanodrop-dispensing using a Tecan Dispenser. 0.1% DMSO (solvent) and Staurosporine (10 μM) served as high control (100% viability) and low control (0% viability), respectively.
Cells were cultured in the appropriate media. For the assays, cells were seeded in white cell culture-treated flat and clear bottom multiwell plates and incubated at 37° C. overnight before compound was added. After incubation for 72 h at 37° C. at 5% or 10% CO2 dependent on the medium, cell plates were equilibrated to room temperature for one hour, CellTiterGlo reagent (Promega) was added and luminescence was measured approximately an hour later using a luminometer.
Raw data were converted into percent cell viability relative to the high and low control, which were set to 100% and 0%, respectively.
The IC50 values are summarized in Tables 9A-1, Table 10A, and Table 10B.

`CC[C@]1(CO)O[C@@H](n2cc(F)c(N)nc2=O)C[C@@H]1O` [Cpd. No. 2, 4-amino-1-((2R,4S,5R)-5-ethyl-4-hydroxy-5-(hydroxymethyl)tetrahydrofuran-2-yl)-5-fluoropyrimidin-2(1H)-one] gave an IC50 (5637 cell line (bladder)) of 8.67 µM, an IC50 (CLS439 cell line (bladder)) of over 50 µM and an IC50 (HS729 cell line (muscle)) of over 50 µM. For the same compound, the IC50 (JAR cell line (placenta)) was over 50 µM, the IC50 (U20S cell line, bone) was over 50 µM and the IC50 (Homo sapiens, 22Rv1, 72 h, 22RV1 cell line (prostate)) was over 50 µM. The IC50 (Homo sapiens, 786-0, 72 h, 786O cell line (kidney)) was over 50 µM, the IC50 (Homo sapiens, A204, 72 h, A204 cell line (muscle)) was 1 µM and the IC50 (Homo sapiens, A549, 72 h, A549 cell line, lung) was over 50 µM. For the same compound, the IC50 (Homo sapiens, A673, 72 h, A673 cell line (bone)) was over 50 µM, the IC50 (Homo sapiens, A2780, 72 h, A2780 cell line (ovary)) was over 50 µM and the IC50 (Homo sapiens, A-375, 72 h, A375 cell line (skin)) was over 50 µM. The IC50 (Homo sapiens, A-431, 72 h, A431 cell line (skin)) was over 50 µM, the IC50 (Homo sapiens, ACHN, ACHN cell line (kidney)) was 3.2 µM and the IC50 (Homo sapiens, ASPC1, 72 h, ASPC1 cell line (pancreas)) was over 50 µM. For the same compound, the IC50 (Homo sapiens, BT-20, 72 h, BT20 cell line (breast)) was over 50 µM, the IC50 (Homo sapiens, BXPC-3, 72 h, BXPC3 cell line (pancreas)) was over 50 µM and the IC50 (Homo sapiens, C-33-A, C33A cell line, endometrial) was 4.92 µM. For the same compound, the IC50 (Homo sapiens, CAKI-1, 72 h, CAKI1 cell line (kidney)) was 1.36 µM, the IC50 (Homo sapiens, COLO 205, 72 h, COLO205 cell line (colon)) was over 50 µM and the IC50 (Homo sapiens, COLO-678, 72 h, COLO678 cell line (colon)) was over 50 µM. For the same compound, the IC50 (Homo sapiens, Ca-Ski, CASKI cell line, endometrial) was over 50 µM, the IC50 (Homo sapiens, Caco-2, 72 h, CACO2 cell line (colon)) was over 50 µM and the IC50 (Homo sapiens, Calu-6, 72 h, CALU6 cell line (lung)) was over 50 µM. For the same compound, the IC50 (Homo sapiens, DLD-1, 72 h, DLD1 cell line (colon)) was over 50 µM, the IC50 (Homo sapiens, DU-145, 72 h, DU145 cell line (prostate)) was over 50 µM and the IC50 (Homo sapiens, EFO-21, 72 h, EFO21 cell line (ovary)) was over 50 µM. It also gave an IC50 (Homo sapiens, EJ-28, 72 h, EJ28 cell line (bladder)) of over 50 µM, an IC50 (Homo sapiens, Granta-519, 72 h, GRANTA-519 cell line (hematological)) of 1.12 µM and an IC50 (Homo sapiens, HCT-15, 72 h, HCT15 cell line (colon)) of over 50 µM. For the same compound, the IC50 (Homo sapiens, HCT-116, 72 h, HCT116 cell line (colon)) was over 50 µM, the IC50 (Homo sapiens, HEK293, 72 h, HEK293 cell line (kidney)) was over 50 µM and the IC50 (Homo sapiens, HL-60, 72 h, HL-60 cell line (hematological)) was over 50 µM. The IC50 (Homo sapiens, HT-29, 72 h, HT29 cell line (colon)) was over 50 µM, the IC50 (Homo sapiens, HT-1080, 72 h, HT1080 cell line (connective tissue)) was over 50 µM and the IC50 (Homo sapiens, HeLa, HELA cell line, endometrial) was over 50 µM. For the same compound, the IC50 (Homo sapiens, HepG2, 72 h, HEPG2 cell line (liver)) was over 50 µM, the IC50 (Homo sapiens, Hs-578T, HS578T cell line, breast) was over 50 µM and the IC50 (Homo sapiens, IGROV-1, 72 h, IGROV1 cell line (ovary)) was over 50 µM. For the same compound, the IC50 (Homo sapiens, IMR-90, 72 h, IMR90 cell line, lung) was over 50 µM, the IC50 (Homo sapiens, J82, 72 h, J82 cell line (bladder)) was over 50 µM and the IC50 (Homo sapiens, JEG-3, 72 h, JEG3 cell line (placenta)) was over 50 µM. The IC50 (Homo sapiens, JIMT-1, 72 h, JIMT1 cell line (breast)) was over 50 µM, the IC50 (Homo sapiens, K562, 72 h, K-562 cell line (hematological)) was over 50 µM and the IC50 (Homo sapiens, Kasumi 1, 72 h, KASUMI-1 cell line (hematological)) was over 50 µM. The IC50 (Homo sapiens, L-363, 72 h, L-363 cell line (hematological)) was over 50 µM, the IC50 (Homo sapiens, LoVo, LOVO cell line (colon)) was over 50 µM and the IC50 (Homo sapiens, MCF7, 72 h, MCF7 cell line (breast)) was over 50 µM. For the same compound, the IC50 (Homo sapiens, MDA-MB-231, 72 h, MDAMB231 cell line (breast)) was over 50 µM, the IC50 (Homo sapiens, MDA-MB-435, 72 h, MDAMB435 cell line (skin)) was over 50 µM and the IC50 (Homo sapiens, MDA-MB-436, 72 h, MDAMB436 cell line (breast)) was over 50 µM. It also gave an IC50 (Homo sapiens, MDA-MB-468, 72 h, MDAMB468 cell line (breast)) of over 50 µM, an IC50 (Homo sapiens, MG-63, 72 h, MG63 cell line (bone)) of over 50 µM and an IC50 (Homo sapiens, MHH-ES-1, 72 h, MHHES1 cell line (bone)) of over 50 µM. It also gave an IC50 (Homo sapiens, MIA PaCa-2, 72 h, MIAPACA2 cell line (pancreas)) of over 50 µM, an IC50 (Homo sapiens, MINO, MINO cell line (hematological)) of 0.25 µM and an IC50 (Homo sapiens, MV4-11, 72 h, MV4-11 cell line (hematological)) of 3.4 µM. The IC50 (Homo sapiens, NCI-H23, 72 h, NCI-H23 cell line (lung)) was over 50 µM, the IC50 (Homo sapiens, NCI-H82, 72 h, NCIH82 cell line (lung)) was over 50 µM and the IC50 (Homo sapiens, NCI-H292, 72 h, NCIH292 cell line (lung)) was over 50 µM. For the same compound, the IC50 (Homo sapiens, NCI-H460, 72 h, NCIH460 cell line (lung)) was 5.15 µM, the IC50 (Homo sapiens, OVCAR-3, 72 h, OVCAR3 cell line (ovary)) was over 50 µM and the IC50 (Homo sapiens, OVCAR-4, 72 h, OVCAR4 cell line (ovary)) was over 50 µM. For the same compound, the IC50 (Homo sapiens, PANC-1, 72 h, PANC1 cell line (pancreas)) was over 50 µM, the IC50 (Homo sapiens, PC-3, 72 h, PC3 cell line (prostate)) was over 50 µM and the IC50 (Homo sapiens, PLC-PRF-5, 72 h, PLCPRF5 cell line (liver)) was over 50 µM. It also gave an IC50 (Homo sapiens, Panc1005, 72 h, PANC1005 cell line (pancreas)) of over 50 µM, an IC50 (Homo sapiens, RD, RD cell line (muscle)) of over 50 µM and an IC50 (Homo sapiens, Ramos, RAMOS cell line (hematological)) of 1.77 µM. It also gave an IC50 (Homo sapiens, SAOS-2, 72 h, SAOS2 cell line (bone)) of over 50 µM, an IC50 (Homo sapiens, SF-268, 72 h, SF268 cell line (brain)) of over 50 µM and an IC50 (Homo sapiens, SF-295, 72 h, SF295 cell line (brain)) of over 50 µM. For the same compound, the IC50 (Homo sapiens, SK-BR-3, 72 h, SKBR3 cell line (breast)) was 17 µM, the IC50 (Homo sapiens, SK-HEP1, 72 h, SKHEP1 cell line (liver)) was over 50 µM and the IC50 (Homo sapiens, SK-LMS-1, 72 h, SKLMS1 cell line (uterus)) was over 50 µM. It also gave an IC50 (Homo sapiens, SK-MEL-5, 72 h, SKMEL5 cell line, skin) of over 50 µM, an IC50 (Homo sapiens, SK-MEL-28, 72 h, SKMEL28 cell line (skin)) of over 50 µM and an IC50 (Homo sapiens, SK-N-AS, SKNAS cell line (brain)) of over 50 µM. For the same compound, the IC50 (Homo sapiens, SK-N-SH, SKNSH cell line (brain)) was over 50 µM, the IC50 (Homo sapiens, SK-OV-3, 72 h, SKOV3 cell line (ovary)) was over 50 µM and the IC50 (Homo sapiens, SNB-75, 72 h, SNB75 cell line (brain)) was over 50 µM. The IC50 (Homo sapiens, SU-DHL10, 72 h, SU-DHL-10 cell line (hematological)) was 1.97 µM, the IC50 (Homo sapiens, SU-DHL-6, 72 h, SU-DHL-6 cell line (hematological)) was over 50 µM and the IC50 (Homo sapiens, SW-620, 72 h, SW620 cell line (colon)) was over 50 µM. The IC50 (Homo sapiens, T-24, 72 h, T24 cell line (bladder)) was over 50 µM, the IC50 (Homo sapiens, TE-671, 72 h, TE671 cell line (muscle)) was over 50 µM and the IC50 (Homo sapiens, THP-1, 72 h, THP-1 cell line (hematological)) was over 50 µM. For the same compound, the IC50 (Homo sapiens, U-87 MG, U87MG cell line (brain)) was over 50 µM, the IC50 (Homo sapiens, UMUC3, 72 h, UMUC3 cell line (bladder)) was over 50 µM and the IC50 (Homo sapiens, UO-31, 72 h, UO31 cell line (kidney)) was over 50 µM. The IC50 (Homo sapiens, WSU-NHL, WSU-NHL cell line (hematological)) was 2.5 µM, the IC50 (MT-3, 72 h, MT3 cell line (breast)) was over 50 µM and the IC50 (NCI-H358M, NCIH358M cell line (lung)) was over 50 µM. It also gave an IC50 (PBMC, PBMC (hematological)) of over 50 µM and an IC50 (RD-ES, RDES cell line (bone)) of over 50 µM.
